Test system: CD34+ cells
Test: SDF-1 transwell migration assay
Format: cell-based
Details: CD34+ cells treated 4 hours at 37° C. at 10 μM, washed; 50 ng/mL SDF1 in lower chamber, 2.5 hours; compared to DMSO control
Protocol: Transwell migration assays were performed using 96-well chemotaxis chambers, […] pore size polycarbonate membrane (Corning Inc., Corning, N.Y.) in accordance with manufacturer's instructions. Briefly, CD34^+ cells were then treated for 4 hours at 37° C. with 16,16-dimethyl PGE2 (dmPGE2), dmPGE2 and glucocorticoid, or DMSO control at a concentration of 10 μM in StemSpan® media (StemCell Technology, Vancouver, Canada). The cells were then washed by centrifugation (300 g for 10 minutes) and resuspended in transwell assay buffer (Phenol Red Free RPMI media (Mediatech), 0.5% lipid free BSA (Sigma-Aldrich) at a concentration of 40,000-60,000 cells/75 μl.
To test the duration of the treatment effects, one portion of treated cells was washed by centrifugation (300 g for 10 minutes) and resuspended in StemSpan® media for 4 hours at 37° C. without dmPGE2, glucocorticoids, or DMSO and then washed again by centrifugation (300 g for 10 minutes) and resuspended in transwell assay buffer (Phenol Red Free RPMI media (Mediatech), 0.5% lipid free BSA (Sigma-Aldrich) at a concentration of 40,000-60,000 cells/75 μl.
Seventy-five μl of cell suspension was added to the upper chamber of the plate, while 235 μl of transwell assay media containing 0 or 50 ng/ml SDF 1α (R&D system, Minneapolis, Minn.) was added to the bottom well. […]

SMILES: CCCCC(C)(C)[C@H](O)/C=C/[C@H]1[C@H](O)CC(=O)[C@@H]1C/C=C\CCCC(=O)O [dmPGE2, 16,16-dimethyl PGE2]
- SDF1-driven cell migration (% of cells added): increased SDF1-driven cell migration compared to the DMSO control
